# PubChem BioAssay AID1963837 (Molecular Pharmacology Branch, DTP, NCI, 2024)
# Test system: 843126-344-R-J1-PDC complex spheroid viability
# Experiment: Anticancer human tumor 843126-344-R-J1-PDC patient-derived melanoma cell line growth inhibition [POLQ]
# Details: second compound 3.16 µM; first compound 0.1 µM; active compounds read low
# In short: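 Patient-derived tumour cells were co-cultured with HUVEC and mesenchymal stem cells as multicellular spheroids at 37 °C. They were treated with POLQ inhibitors (novobiocin, ART-558, RP6685) alone or combined with other agents. Top concentrations were at or near clinical Cmax (otherwise 10 microM; SN-38 at 1 microM), decreasing in half-log steps.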
# 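Note: spheroids exposed to drugs for seven days before readout.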
row,SMILES,"viability, T/C [%]"
1,C=CCn1c(=O)c2cnc(Nc3ccc(N4CCN(C)CC4)cc3)nc2n1-c1cccc(C(C)(C)O)n1 + Cc1cccc(N(C)C(=O)C2C(O)CCN2c2nc(C)cc(C(F)(F)F)c2C#N)c1,112
2,CNCc1ccc(-c2[nH]c3cc(F)cc4c3c2CCNC4=O)cc1 + COC1C(OC(N)=O)C(O)C(Oc2ccc3c(O)c(NC(=O)c4ccc(O)c(CC=C(C)C)c4)c(=O)oc3c2C)OC1(C)C,96.9
3,C=CC(=O)N1CCN(c2nc(=O)n(-c3c(C)ccnc3C(C)C)c3nc(-c4c(O)cccc4F)c(F)cc23)C(C)C1 (configuration not stated) + Cc1cccc(N(C)C(=O)C2C(O)CCN2c2nc(C)cc(C(F)(F)F)c2C#N)c1,74.5
4,CC(C)n1c(=O)n(C)c2cnc3cc(F)c(-c4ccc(OCCCN5CCCCC5)nc4)cc3c21 + Cc1cccc(N(C)C(=O)C2C(O)CCN2c2nc(C)cc(C(F)(F)F)c2C#N)c1,84.5
5,COc1cc2cc(C(=O)CCC(=O)O)sc2cc1OC + Nc1ccc(C#CCN(C(=O)Cc2ncc(C(F)(F)F)cc2C(F)(F)F)c2ccc(F)cc2)nn1,83.7
6,CC1COCCN1c1cc(-c2ccnn2C)c2ccnc(-c3ccn[nH]3)c2n1 (configuration not stated) + Nc1ccc(C#CCN(C(=O)Cc2ncc(C(F)(F)F)cc2C(F)(F)F)c2ccc(F)cc2)nn1,70.8

# Same assay, conditions: second compound 3.16 µM; first compound 0.316 µM; active compounds read low
row,SMILES,"viability, T/C [%]"
1,CC1COCCN1c1cc(C2(S(C)(=N)=O)CC2)nc(-c2ccnc3[nH]ccc23)n1 (configuration not stated) + Cc1cccc(N(C)C(=O)C2C(O)CCN2c2nc(C)cc(C(F)(F)F)c2C#N)c1,111
2,C=CCn1c(=O)c2cnc(Nc3ccc(N4CCN(C)CC4)cc3)nc2n1-c1cccc(C(C)(C)O)n1 + Cc1cccc(N(C)C(=O)C2C(O)CCN2c2nc(C)cc(C(F)(F)F)c2C#N)c1,113
3,CNCc1ccc(-c2[nH]c3cc(F)cc4c3c2CCNC4=O)cc1 + COC1C(OC(N)=O)C(O)C(Oc2ccc3c(O)c(NC(=O)c4ccc(O)c(CC=C(C)C)c4)c(=O)oc3c2C)OC1(C)C,92
4,C=CC(=O)N1CCN(c2nc(=O)n(-c3c(C)ccnc3C(C)C)c3nc(-c4c(O)cccc4F)c(F)cc23)C(C)C1 (configuration not stated) + Cc1cccc(N(C)C(=O)C2C(O)CCN2c2nc(C)cc(C(F)(F)F)c2C#N)c1,104
5,CC(C)n1c(=O)n(C)c2cnc3cc(F)c(-c4ccc(OCCCN5CCCCC5)nc4)cc3c21 + Cc1cccc(N(C)C(=O)C2C(O)CCN2c2nc(C)cc(C(F)(F)F)c2C#N)c1,106
6,COc1cc2cc(C(=O)CCC(=O)O)sc2cc1OC + Nc1ccc(C#CCN(C(=O)Cc2ncc(C(F)(F)F)cc2C(F)(F)F)c2ccc(F)cc2)nn1,89.1
7,CC1COCCN1c1cc(-c2ccnn2C)c2ccnc(-c3ccn[nH]3)c2n1 (configuration not stated) + Nc1ccc(C#CCN(C(=O)Cc2ncc(C(F)(F)F)cc2C(F)(F)F)c2ccc(F)cc2)nn1,59.6

# Same assay, conditions: second compound 3.16 µM; first compound 1 µM; active compounds read low
row,SMILES,"viability, T/C [%]"
1,CC1COCCN1c1cc(C2(S(C)(=N)=O)CC2)nc(-c2ccnc3[nH]ccc23)n1 (configuration not stated) + Cc1cccc(N(C)C(=O)C2C(O)CCN2c2nc(C)cc(C(F)(F)F)c2C#N)c1,83.7
2,C=CCn1c(=O)c2cnc(Nc3ccc(N4CCN(C)CC4)cc3)nc2n1-c1cccc(C(C)(C)O)n1 + Cc1cccc(N(C)C(=O)C2C(O)CCN2c2nc(C)cc(C(F)(F)F)c2C#N)c1,89.3
3,CNCc1ccc(-c2[nH]c3cc(F)cc4c3c2CCNC4=O)cc1 + COC1C(OC(N)=O)C(O)C(Oc2ccc3c(O)c(NC(=O)c4ccc(O)c(CC=C(C)C)c4)c(=O)oc3c2C)OC1(C)C,101
4,C=CC(=O)N1CCN(c2nc(=O)n(-c3c(C)ccnc3C(C)C)c3nc(-c4c(O)cccc4F)c(F)cc23)C(C)C1 (configuration not stated) + Cc1cccc(N(C)C(=O)C2C(O)CCN2c2nc(C)cc(C(F)(F)F)c2C#N)c1,91.5
5,CC(C)n1c(=O)n(C)c2cnc3cc(F)c(-c4ccc(OCCCN5CCCCC5)nc4)cc3c21 + Cc1cccc(N(C)C(=O)C2C(O)CCN2c2nc(C)cc(C(F)(F)F)c2C#N)c1,99.1
6,COc1cc2cc(C(=O)CCC(=O)O)sc2cc1OC + Nc1ccc(C#CCN(C(=O)Cc2ncc(C(F)(F)F)cc2C(F)(F)F)c2ccc(F)cc2)nn1,86
7,CC1COCCN1c1cc(-c2ccnn2C)c2ccnc(-c3ccn[nH]3)c2n1 (configuration not stated) + Nc1ccc(C#CCN(C(=O)Cc2ncc(C(F)(F)F)cc2C(F)(F)F)c2ccc(F)cc2)nn1,44.5

# Same assay, conditions: second compound 3.16 µM; first compound 3.16 µM; active compounds read low
row,SMILES,"viability, T/C [%]"
1,CC1COCCN1c1cc(C2(S(C)(=N)=O)CC2)nc(-c2ccnc3[nH]ccc23)n1 (configuration not stated) + Cc1cccc(N(C)C(=O)C2C(O)CCN2c2nc(C)cc(C(F)(F)F)c2C#N)c1,78.4
2,CNCc1ccc(-c2[nH]c3cc(F)cc4c3c2CCNC4=O)cc1 + COC1C(OC(N)=O)C(O)C(Oc2ccc3c(O)c(NC(=O)c4ccc(O)c(CC=C(C)C)c4)c(=O)oc3c2C)OC1(C)C,82.2
3,C=CC(=O)N1CCN(c2nc(=O)n(-c3c(C)ccnc3C(C)C)c3nc(-c4c(O)cccc4F)c(F)cc23)C(C)C1 (configuration not stated) + Cc1cccc(N(C)C(=O)C2C(O)CCN2c2nc(C)cc(C(F)(F)F)c2C#N)c1,120
4,CC(C)n1c(=O)n(C)c2cnc3cc(F)c(-c4ccc(OCCCN5CCCCC5)nc4)cc3c21 + Cc1cccc(N(C)C(=O)C2C(O)CCN2c2nc(C)cc(C(F)(F)F)c2C#N)c1,91.9
5,COc1cc2cc(C(=O)CCC(=O)O)sc2cc1OC + Nc1ccc(C#CCN(C(=O)Cc2ncc(C(F)(F)F)cc2C(F)(F)F)c2ccc(F)cc2)nn1,94.7
6,CC1COCCN1c1cc(-c2ccnn2C)c2ccnc(-c3ccn[nH]3)c2n1 (configuration not stated) + Nc1ccc(C#CCN(C(=O)Cc2ncc(C(F)(F)F)cc2C(F)(F)F)c2ccc(F)cc2)nn1,34.5

# Same assay, conditions: second compound 3.16 µM; first compound 10 µM; active compounds read low
row,SMILES,"viability, T/C [%]"
1,CC1COCCN1c1cc(C2(S(C)(=N)=O)CC2)nc(-c2ccnc3[nH]ccc23)n1 (configuration not stated) + Cc1cccc(N(C)C(=O)C2C(O)CCN2c2nc(C)cc(C(F)(F)F)c2C#N)c1,54.5
2,CNCc1ccc(-c2[nH]c3cc(F)cc4c3c2CCNC4=O)cc1 + COC1C(OC(N)=O)C(O)C(Oc2ccc3c(O)c(NC(=O)c4ccc(O)c(CC=C(C)C)c4)c(=O)oc3c2C)OC1(C)C,85.4
3,C=CC(=O)N1CCN(c2nc(=O)n(-c3c(C)ccnc3C(C)C)c3nc(-c4c(O)cccc4F)c(F)cc23)C(C)C1 (configuration not stated) + Cc1cccc(N(C)C(=O)C2C(O)CCN2c2nc(C)cc(C(F)(F)F)c2C#N)c1,66.8
4,CC(C)n1c(=O)n(C)c2cnc3cc(F)c(-c4ccc(OCCCN5CCCCC5)nc4)cc3c21 + Cc1cccc(N(C)C(=O)C2C(O)CCN2c2nc(C)cc(C(F)(F)F)c2C#N)c1,73.1
5,COc1cc2cc(C(=O)CCC(=O)O)sc2cc1OC + Nc1ccc(C#CCN(C(=O)Cc2ncc(C(F)(F)F)cc2C(F)(F)F)c2ccc(F)cc2)nn1,91
6,CC1COCCN1c1cc(-c2ccnn2C)c2ccnc(-c3ccn[nH]3)c2n1 (configuration not stated) + Nc1ccc(C#CCN(C(=O)Cc2ncc(C(F)(F)F)cc2C(F)(F)F)c2ccc(F)cc2)nn1,29.9

# Same assay, conditions: second compound 10 µM; first compound 0.00316 µM; active compounds read low
row,SMILES,"viability, T/C [%]"
1,C=CCn1c(=O)c2cnc(Nc3ccc(N4CCN(C)CC4)cc3)nc2n1-c1cccc(C(C)(C)O)n1 + Cc1cccc(N(C)C(=O)C2C(O)CCN2c2nc(C)cc(C(F)(F)F)c2C#N)c1,105

# Same assay, conditions: second compound 10 µM; first compound 0.01 µM; active compounds read low
row,SMILES,"viability, T/C [%]"
1,C=CCn1c(=O)c2cnc(Nc3ccc(N4CCN(C)CC4)cc3)nc2n1-c1cccc(C(C)(C)O)n1 + Cc1cccc(N(C)C(=O)C2C(O)CCN2c2nc(C)cc(C(F)(F)F)c2C#N)c1,89

# Same assay, conditions: second compound 10 µM; first compound 0.0316 µM; active compounds read low
row,SMILES,"viability, T/C [%]"
1,CC1COCCN1c1cc(C2(S(C)(=N)=O)CC2)nc(-c2ccnc3[nH]ccc23)n1 (configuration not stated) + Cc1cccc(N(C)C(=O)C2C(O)CCN2c2nc(C)cc(C(F)(F)F)c2C#N)c1,81.1
2,C=CCn1c(=O)c2cnc(Nc3ccc(N4CCN(C)CC4)cc3)nc2n1-c1cccc(C(C)(C)O)n1 + Cc1cccc(N(C)C(=O)C2C(O)CCN2c2nc(C)cc(C(F)(F)F)c2C#N)c1,94.3
3,CNCc1ccc(-c2[nH]c3cc(F)cc4c3c2CCNC4=O)cc1 + COC1C(OC(N)=O)C(O)C(Oc2ccc3c(O)c(NC(=O)c4ccc(O)c(CC=C(C)C)c4)c(=O)oc3c2C)OC1(C)C,78.6
